Experimental data reported in patent publication US20230310446A1, “RHO KINASE INHIBITION FOR TREATMENT OF PROLIFERATIVE VITREORETINOPATHY AND CONDITIONS ASSOCIATED WITH EPITHELIAL TO MESENCHYMAL TRANSITION” (The Schepens Eye Research Institute, Inc., priority 2020, published 2023).
“Also recorded” adds a separate entry of the source.

Legend:
C-PVR cells [1] = test: CyQUANT Direct Cell Proliferation Assay of primary PVR cultures; type: cell-based, human; conditions: 48 hours
Protocol: PVR cells were cultured and seeded into 96 well assay plates at 10,000 cells/well in complete growth media. […] Cell proliferation was assessed at 24, and 48 hour time points by CyQUANT® Direct Cell Proliferation Assay (Thermofisher Scientific) and compared to vehicle controls at 24, and 48 hours post treatment. The data was expressed as percent cell inhibition. […] Cell proliferation and cell death LDH levels were measured and quantified at 48 hours.

C-PVR cells [2] = test: LDH release cytotoxicity assay (CytoTox 96) of primary PVR cultures; type: cell-based, human; conditions: 48 hours
Protocol: Conditioned media was also collected at 24, and 48 hour time points for each condition, and percentage cell death was quantified by measuring LDH release using the CytoTox 96 Non-Radioactive Cytotoxicity Assay (Promega, Madison, WI, USA). As a positive control, the same number of cells maintained in parallel was lysed by two freeze—thaw cycles; the conditioned media were collected to measure the maximum LDH release. Percentage LDH release was calculated as 100%×(experimental LDH−spontaneous LDH)/(maximal LDH−spontaneous LDH).
PVR cells were cultured using Rho-Kinase inhibitors ripasudil, netarsudil, fasudil, Y-27632 at different concentrations (0.1 μM, 10 μM) and control with no drug. Cell proliferation and cell death LDH levels were measured and quantified at 48 hours.

PVR explants [3] = test: Ex vivo model of PVR: outgrowth from PVR membrane explants embedded in Matrigel; type: cell-based, human; conditions: for explant outgrowths, inhibition of proliferation and migration: 1 μM, all time points
Protocol: PVR membranes were divided into pieces and embedded in growth factor reduced Matrigel (354,230; BD Biosciences, San Jose, CA) in a 24-well plate and placed at 37° C. for 30 min for the Matrigel to solidify. The specimens were treated with either vehicle or Rho kinase inhibitors, Netarsudil (60 nM), Ripasudil (300 nM), Fasudil (1 uM), and Y27632 (1 uM) in 500 μl in PVR growth media comprising: • 1) Endothelial base medium (EBM2; Lonza-CC-3156)+ • 2) EGM 2 SingleQuot Kit suppl. & Growth factors (Lonza; CC-4176)+ • 3) 10% fetal bovine serum (Atlanta Biologicals)+ • 4) 1% Penicillin/Streptomycin+1% L-Glutamine • *** The total FBS in the media is 12% (2% from SingleQuot+10% additional) Phase contrast images were taken using an EVOS FL imaging system (Life Technologies) and the distance of growth from the embedded tissue was quantified using Image J (National Institutes of Health). PVR membranes were obtained from human donors with PVR grade C undergoing surgery. Membrane fragments placed on a matrigel mount with PVR cell growth media and treated with Rho-Kinase inhibitors ripasudil (1 μM), netarsudil (1 μM), fasudil (1 μM), Y-27632 (1 μM) and control with no drug.

C-PVR cells [4] = test: TGF-β2 induced mesenchymal phenotypic change, phase images; type: cell-based, human; conditions: 1 uM, TGF-β2 10 ng/ml, day 3
Protocol: PVR cells were seeded in well plates for a period of 72 hours. Cells were pre-treated with rho-kinase inhibitors: ripasudil, netarsudil, fasudil and […] (1 uM) for 24 hours, then treated with TGF-β2 […], rho-kinase inhibitors (1 uM), and control with no drug, using triplicates for each condition. Changes in phenotype were examined via phase images at day 3.

C-PVR cells [5] = test: Cell migration of PVR cells quantified with phase images; type: cell-based, human; conditions: 1 μM
Protocol: PVR cells cultured using Rho-Kinase inhibitors ripasudil (1 μM), netarsudil (1 μM), fasudil (1 μM), Y-27632 (1 μM) and control with no drug. Cell migration was measured and quantified with phase images at 0, 3, 6, and 12 hours.

PVR explants [6] = test: Ex vivo model of PVR: outgrowth from PVR membrane explants embedded in Matrigel; type: cell-based; conditions: ex vivo cultured explants of PVR tissue from human subjects
RhoA = RhoA pull down activation assay after TGF-β2 treatment; type: cell-based, human; conditions: C-PVR cells
Protocol: C-PVR cells were cultured and seeded in T-25 flasks at 1 million cells per flask. […] Cells were washed with ice-cold PBS and cell lysates were harvested with a cell scraper. Protein concentration of each time point was measured to ensure equal protein concentration. Using freshly prepared cell lysates, equivalent protein amounts (300-500 ug total protein) were added to 30 ul of rhotekin-RBD beads (Cytoskeleton, Denver, CO) for the […] pulldown assay. Pulldown assay supernatants were quantified using western blot analysis. An anti-RhoA primary antibody (Cytoskeleton, Denver, CO) was added and left overnight at 4° C., After primary antibody intubation, HRP labeled secondary antibody was added, following by addition on HRP detection reagent and intubated at room temperature for 5 minutes,
PVR cells cultured in T-25 flasks and treated with TGF-β2 […] at 80% confluence. […]

[7] = 7 days post embedding in Matrigel
[8] = 14 days post embedding in Matrigel

Molecule	reduction of proliferation in C-PVR cells (C-PVR cells [1]; 0.1 μM (lowest concentration))	reduction of proliferation in C-PVR cells (C-PVR cells [1]; 1 μM (lower concentration))	reduction of proliferation in C-PVR cells (C-PVR cells [1]; 10 μM (highest concentration))	cell death detected by LDH analysis (C-PVR cells [2]; all concentrations (10-0.1 μM))	explant outgrowth (PVR explants [3]; [7])	explant outgrowth (PVR explants [3]; [8])	mesenchymal phenotypic change in TGF-β2 treated C-PVR cells (C-PVR cells [4])	reduction of migration in C-PVR cells (C-PVR cells [5])	numbers of live cells in the explants (PVR explants [6])	explant outgrowths, inhibition of proliferation and migration (PVR explants [3])	explant outgrowths, inhibition of proliferation and migration (PVR explants [3]; listed as Y-2762, dihydrochloride)	cell death detected by LDH analysis (C-PVR cells [2]; low concentrations (0.1 μM))	RhoA activation, increase over control (RhoA; 15 minutes after stimulation)	RhoA activation, increase over control (RhoA; 30 minutes after stimulation)	RhoA activation versus control (RhoA; 60 minutes after stimulation)
C[C@H]1CNCCCN1S(=O)(=O)c1cccc2cncc(F)c12 [ripasudil, 4-fluoro-5-[[(2S)-2-methyl-1,4-diazepan-1-yl]sulfonyl]isoquinoline]	21%	25%	44%	dose dependent cell death; also recorded: Low levels of cell death	0.8 mm	15 mm	slightly decreased	65%	–	–	–	–	–	–	–
O=S(=O)(c1cccc2cnccc12)N1CCCNCC1 [fasudil, 1-(5-isoquinolinesulfonyl)-homopiperazine]	24%	39%	20%	low levels of cell death	–	–	slightly decreased	40%	significantly reduced	no outgrowths and almost complete inhibition of proliferation and migration	–	–	–	–	–
C[C@@H](N)[C@H]1CC[C@H](C(=O)Nc2ccncc2)CC1.Cl.Cl [Y-27632, (+)-(R)-trans-4-(1-aminoethyl)-N-(4-pyridyl)cyclohexanecarboxamide dihydrochloride]	–	–	–	–	–	–	slightly decreased	–	significantly reduced	–	no outgrowths and almost complete inhibition of proliferation and migration	–	–	–	–
Cc1ccc(C(=O)OCc2ccc([C@@H](CN)C(=O)Nc3ccc4cnccc4c3)cc2)c(C)c1 [netarsudil]	39%	37%	95%	dose dependent cell death	4.2 mm	37 mm	–	100%	–	–	–	Low levels of cell death	–	–	–
TGF-β2: Recombinant Human TGF-β2 growth factor (PeproTech) used as stimulus of EMT and RhoA activation (protein, UniProt P61812 303-414, looked up) Transforming growth factor …: ALDAAYCFRNVQDNCCLRPLYIDFKRDLGWKWIHEPKGYNANFCAGACPYLWSSDTQHSRVLSLYNTINPEASASPCCVSQDLEPLTILYYIGKTPKIEQLSNMIVKSCKCS	–	–	–	–	–	–	–	–	–	–	–	–	1.5	2 fold	slight decrease over control
